# Target: GPR40 (Homo sapiens (Human), UniProt O14842)
# Experiment: GPR40 protein activity by intracellular calcium concentration (Fluo-4, Flexstation 3) in transfected HEK-293 cells
# Assay type: cell-based
# Conditions: HEK-293 cells transfected with human GPR40, intracellular calcium; read-out: EC50
# Experimental: The GPR40 protein activity according to the novel 3-(4-(benzyloxy)phenyl)hex-4-inoic acid derivative of the present invention was measured by investigating the changes in intracellular calcium concentration affected by the GRP40 activation. First, HEK-293 cells were transfected with human GPR40 DNA (Origene, RC218370) by using Fugene HD (Promega, E2311). […] 24 hours later, the cell culture medium was replaced with Dulbecco's Modified Eagle Medium (DMEM, 50 μl/well) supplemented with 1% fetal bovine serum (FBS). To measure the calcium concentration, 50 μl of Fluo-4 reagent (Invitrogen, F10471) was added to each well, followed by culture in a 37° C. incubator for 2 hours. […] 2 hours after the culture began, those prepared samples were automatically injected to the cells by using Flexstation 3 (Molecular Devices). Then, intracellular calcium concentration was measured for 120 seconds by using SoftMax® Pro software. At this time, dimethylsulfoxide (DMSO) was injected to the cells for the non-treated group, followed by measuring the calcium concentration therein. The GPR40 protein activity was calculated by the below mathematical formula 1 with the results of calcium concentration measurement. GPR40 activity=(intracellular calcium concentration increased by the sample)/(intracellular calcium concentration of the non-treated group)×100 [Mathematical Formula 1]
# Chain of GPR40 (O14842 whole entry): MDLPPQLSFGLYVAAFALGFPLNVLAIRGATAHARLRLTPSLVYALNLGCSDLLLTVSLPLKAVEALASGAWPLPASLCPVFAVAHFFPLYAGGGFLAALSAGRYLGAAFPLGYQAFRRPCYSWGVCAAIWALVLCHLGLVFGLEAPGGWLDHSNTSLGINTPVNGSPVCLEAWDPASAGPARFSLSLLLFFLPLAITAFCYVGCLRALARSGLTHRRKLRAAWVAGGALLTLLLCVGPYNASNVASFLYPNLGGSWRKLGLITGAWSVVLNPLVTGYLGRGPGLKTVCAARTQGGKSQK
row,EC50 [nM],SMILES
1,< 200,"CC#C[C@@H](CC(=O)O)c1ccc(OCc2ccc(CN3Cc4ccccc4C3)cc2)cc1 [Example 27, (S)-3-(4-(4-(isoindoline-2-ylmethyl)benzyloxy)phenyl)hex-4-ynoic acid]"
2,> 300,"CC#C[C@@H](CC(=O)O)c1ccc(OCc2ccc(CN3CC=C(c4ccc(S(C)(=O)=O)cc4)CC3)cc2)cc1 [Example 32, (S)-3-(4-(4-((4-(4-(methylsulfonyl)phenyl)-5,6-dihydropyridine-1(2H)-yl)methyl)benzyloxy)phenyl)hex-4-ynoic acid]"
3,> 300,"CC#C[C@@H](CC(=O)O)c1ccc(OCc2ccc(CN3CC=C(c4ccc(OCCCS(C)(=O)=O)cc4)CC3)cc2)cc1 [Example 33, (S)-3-(4-(4-((4-(4-(3-(methylsulfonyl)propoxy)phenyl)-5,6-dihydropyridine-1(2H)-yl)methyl)benzyloxy)phenyl)hex-4-ynoic acid]"
4,> 300,"CC#C[C@@H](CC(=O)O)c1ccc(OCc2ccc(C(C)N3CCc4ccccc4C3)cc2)cc1 (stereo partly drawn) [Example 34, (3S)-3-(4-(4-(1-(3,4-dihydroisoquinoline-2(1H)-yl)ethyl)benzyloxy)phenyl)hex-4-ynoic acid]"
5,> 300,"CC#C[C@@H](CC(=O)O)c1ccc(OCc2ccc(CN3CCN(c4ccc(O)cc4)CC3)cc2)cc1 [Example 35, (S)-3-(4-(4-((4-(4-hydroxyphenyl)piperazine-1-yl)methyl)benzyloxy)phenyl)hex-4-ynoic acid]"
6,200 to 300,"CC#C[C@@H](CC(=O)O)c1ccc(OCc2ccc(CN3CC=C(c4ccc(F)cc4)CC3)cc2)cc1 [Example 39, (S)-3-(4-(4-((4-(4-fluorophenyl)-5,6-dihydropyridine-1(2H)-yl)methyl)benzyloxy)phenyl)hex-4-ynoic acid]"
7,> 300,"CC#C[C@@H](CC(=O)O)c1ccc(OCc2ccc(CN3CCN(c4nc5ccccc5s4)CC3)cc2)cc1 [Example 43, (S)-3-(4-(4-((4-(benzo[d]thiazole-2-yl)piperazine-1-yl)methyl)benzyloxy)phenyl)hex-4-ynoic acid]"
8,> 300,"CC#C[C@@H](CC(=O)O)c1ccc(OCc2ccc(CN3CCN(c4ncc(CCC)cn4)CC3)cc2)cc1 [Example 44, (S)-3-(4-(4-((4-(5-propylpyrimidine-2-yl)piperazine-1-yl)methyl)benzyloxy)phenyl)hex-4-ynoic acid]"
9,> 300,"CC#C[C@@H](CC(=O)O)c1ccc(OCc2ccc(CN3CCN(c4ccc(C#N)cn4)CC3)cc2)cc1 [Example 45, (S)-3-(4-(4-((4-(5-cyanopyridine-2-yl)piperazine-1-yl)methyl)benzyloxy)phenyl)hex-4-ynoic acid]"
10,> 300,"CC#C[C@@H](CC(=O)O)c1ccc(OCc2ccc(CN3CCC(c4ccccc4)C3)cc2)cc1 (stereo partly drawn) [Example 46, (3S)-3-(4-(4-((3-phenylpyrrolidine-1-yl)methyl)benzyloxy)phenyl)hex-4-ynoic acid]"
11,> 300,"CC#C[C@@H](CC(=O)O)c1ccc(OCc2ccc(CCN3CCc4cc(OC)ccc4C3)cc2)cc1 [Example 48, (S)-3-(4-(4-(2-(6-methoxy-3,4-dihydroisoquinoline-2(1H)-yl)ethyl)benzyloxy)phenyl)hex-4-ynoic acid]"
12,> 300,"CC#C[C@@H](CC(=O)O)c1ccc(OCc2ccc(CCN3Cc4ccccc4C3)cc2)cc1 [Example 49, (S)-3-(4-(4-(2-(isoindoline-2-yl)ethyl)benzyloxy)phenyl)hex-4-ynoic acid]"
13,> 300,"CC#C[C@@H](CC(=O)O)c1ccc(OCc2ccc(CCN3CCc4ccccc4C3)cc2)cc1 [Example 50, (S)-3-(4-(4-(2-(3,4-dihydroisoquinoline-2(1H)-yl)ethyl)benzyloxy)phenyl)hex-4-ynoic acid]"

# Second part, the molecule before the results:
row,SMILES,EC50 [nM]
1,"CC#CC(CC(=O)O)c1ccc(OCc2cccc(C3=CCC(O)CC3)c2)cc1 [Example 6, L-lysine 3-(4-(3-(4-hydroxycyclohex-1-enyl)benzyloxy)phenyl)hex-4-ynoate]",200 to 300
2,"CC#C[C@H](CC(=O)O)c1ccc(OCc2cccc(C3=CCC4(CC3)OCCO4)c2)cc1 [Example 8, (3R)-3-(4-(3-(1,4-dioxaspiro[4,5]dec-7-en-8-yl)benzyloxy)phenyl)hex-4-ynoic acid]",> 300
3,"CC#CC(CC(=O)O)c1ccc(OCc2ccc(CN3CCc4ccccc4C3)cc2)cc1 (centres unmarked) [Example 12, 3-(4-(4-((3,4-dihydroisoquinoline-2(1H)-yl)methyl)benzyloxy)phenyl)hex-4-ynoic acid]",< 200
4,"CC#CC(CC(=O)O)c1ccc(OCc2ccc(CN3CCc4ccccc4C3)c(C3=CCCCC3)c2)cc1 (centres unmarked) [Example 13, 3-(4-(3-cyclohexenyl-4-((3,4-dihydroisoquinoline-2(1H)-yl)methyl)benzyloxy)phenyl)hex-4-ynoic acid]",> 300
5,"CC#CC(CC(=O)O)c1ccc(OCc2ccc(CN3CCN(c4ccccc4)CC3)cc2)cc1 (centres unmarked) [Example 15, 3-(4-(4-((4-phenylpiperazine-1-yl)methyl)benzyloxy)phenyl)hex-4-ynoic acid]",> 300
6,"CC#CC(CC(=O)O)c1ccc(OCc2ccc(CN3CCc4cc(OC)ccc4C3)cc2)cc1 (centres unmarked) [Example 16, 3-(4-(4-((6-methoxy-3,4-dihydroisoquinoline-2(1H)-yl)methyl)benzyloxy)phenyl)hex-4-ynoic acid]",> 300
7,"CC#CC(CC(=O)O)c1ccc(OCc2ccc(CN3CCC(c4ccccc4)CC3)cc2)cc1 (centres unmarked) [Example 17, 3-(4-(4-((4-phenylpiperidine-1-yl)methyl)benzyloxy)phenyl)hex-4-ynoic acid]",> 300
8,"CC#CC(CC(=O)O)c1ccc(OCc2ccc(CN3CCN(c4ccc(F)cc4)CC3)cc2)cc1 (centres unmarked) [Example 18, 3-(4-(4-((4-(4-fluorophenyl)piperazine-1-yl)methyl)benzyloxy)phenyl)hex-4-ynoic acid]",> 300
9,"CC#CC(CC(=O)O)c1ccc(OCc2ccc(CN3CCN(c4ccc(C(F)(F)F)cc4)CC3)cc2)cc1 (centres unmarked) [Example 19, 3-(4-(4-((4-(4-(trifluoromethyl)phenyl)piperazine-1-yl)methyl)benzyloxy)phenyl)hex-4-ynoic acid]",> 300
10,"CC#CC(CC(=O)O)c1ccc(OCc2ccc(CN3CCN(c4ccc(OCCCS(C)(=O)=O)cc4)CC3)cc2)cc1 (centres unmarked) [Example 20, 3-(4-(4-((4-(4-(3-(methylsulfonyl)propoxy)phenyl)piperazine-1-yl)methyl)benzyloxy)phenyl)hex-4-ynoic acid]",> 300
11,"CC#C[C@@H](CC(=O)O)c1ccc(OCc2ccc(CN3CCN(c4ccc(C(F)(F)F)cc4)CC3)cc2)cc1 [Example 22, (S)-3-(4-(4-((4-(4-(trifluoromethyl)phenyl)piperazine-1-yl)methyl)benzyloxy)phenyl)hex-4-ynoic acid]",> 300
12,"CC#C[C@@H](CC(=O)O)c1ccc(OCc2ccc(CN3CCN(c4ccc(F)cc4)CC3)cc2)cc1 [Example 23, (S)-3-(4-(4-((4-(4-fluorophenyl)piperazine-1-yl)methyl)benzyloxy)phenyl)hex-4-ynoic acid]",200 to 300
13,"CC#C[C@@H](CC(=O)O)c1ccc(OCc2ccc(CN3CCc4cc(OC)ccc4C3)cc2)cc1 [Example 25, (S)-3-(4-(4-((6-methoxy-3,4-dihydroisoquinoline-2(1H)-yl)methyl)benzyloxy)phenyl)hex-4-ynoic acid]",> 300
14,"CC#C[C@@H](CC(=O)O)c1ccc(OCc2ccc(CN3CCCc4ccccc43)cc2)cc1 [Example 41, sodium (S)-3-(4-(4-((3,4-dihydroquinoline-1(2H)-yl)methyl)benzyloxy)phenyl)hex-4-ynoate]",> 300

# Same assay, conditions: HEK-293 cells transfected with human GPR40, intracellular calcium; values in text; read-out: EC50, concentration promoting activation of GPR40 protein by 50%
row,EC50 [nM],SMILES
1,< 200,"CC#CC(CC(=O)O)c1ccc(OCc2ccc(CN3CCc4ccccc4C3)cc2)cc1 (centres unmarked) [Example 12, 3-(4-(4-((3,4-dihydroisoquinoline-2(1H)-yl)methyl)benzyloxy)phenyl)hex-4-ynoic acid]"
2,< 200,"CC#C[C@@H](CC(=O)O)c1ccc(OCc2ccc(CN3Cc4ccccc4C3)cc2)cc1 [Example 27, (S)-3-(4-(4-(isoindoline-2-ylmethyl)benzyloxy)phenyl)hex-4-ynoic acid]"
